Results: US20260216057A1, “PHARMACEUTICAL COMPOSITIONS FOR HERPES VIRUS” (priority 2022, published 2026)

What was measured:
HSV-2 = conditions: Field et al. (2013); read-out: in-vitro EC50 against HSV-2; cited from earlier work
Plasma protein binding = type: in vitro ADME; conditions: read-out: free fraction of the total plasma concentration
[1] = Example 2: pritelivir aqueous suspension SC PK study in rat at lower dose; type: in vivo, male Sprague Dawley rats; conditions: aqueous suspension (dihydrate), 10 mg/kg
Procedure: The LC-MS methodology and conditions used to analyse pritelivir in plasma samples from the PK studies described in Examples 1 to 5 are provided in Table 1.
An aqueous suspension of crystalline pritelivir free base (dihydrate) in a 0.9% NaCl+0.5% polysorbate 80 vehicle at a concentration of 3.0 mg/mL was prepared as follows: • 1) Vehicle (0.9% w/w NaCl and 0.5% w/w polysorbate 80) was prepared by dissolving NaCl and polysorbate 80 in water. • 2) Appropriate amount of crystalline pritelivir free base (dihydrate) was weighed and added to the vehicle. • 3) Mixture was stirred for 15 minutes, then vortexed for 1 minute and then sonicated for 10 minutes. • 4) The final dosing formulation was a homogenous white cloudy suspension.
Male SD rats with 230-250 g body weight, ages 6-8 weeks were used for the rat PK study. The animals had free access to food and water. The prepared suspension was administered via subcutaneous injection to each animal group (n=3) with a dosing volume of 3.33 mL/kg to achieve a 10 mg/kg dose.
At each time point, approximately 200 μL whole blood was collected via the jugular vein into K2EDTA tubes. Blood samples were put on to ice and centrifuged at 2000 g for 5 min to obtain plasma sample within 15 minutes. Plasma samples were stored at approximately −70° C. until analyzed by LC-MS.

genital HSV = conditions: oral, 28 days, cited from earlier work
[2] = Wald et al. (2014); cited from earlier work
[3] = Example 7: Compound 1 aqueous suspension SC PK study in dog; type: in vivo, male non-naïve Beagle dogs; conditions: aqueous suspension (Form A), 10 mg/kg
Procedure: (§1) The LC-MS methodology and conditions used to analyse the helicase-primase inhibitor Compound 1 in plasma samples from the sub-cutaneous injection PK studies (Examples 7 and 10-12) are described in Table 3 and Table 4. An aqueous suspension of crystalline Compound 1 (Form A) was prepared in a 0.9% NaCl+0.5% poloxamer 188 vehicle at a concentration of 5.0 mg/mL as described in Example 4. The suspension was then dosed to male non-naïve beagle dogs at 10 mg/kg according to the Example 4 animal dosing method.

[4] = Injection site observation in Example 7 Compound 1 PK studies; type: in vivo, rat, monkey, dog; conditions: SC Compound 1 depot formulations, Example 7, 3 species
Procedure: The suspension was then dosed to male SD rats at 10 mg/kg according to the Example 2 animal dosing method. The suspension was then dosed to male cyno monkeys at 10 mg/kg according to the Example 3 animal dosing method. The suspension was then dosed to male non-naïve beagle dogs at 10 mg/kg according to the Example 4 animal dosing method.

[5] = Example 13: Compound 1 IV PK study in monkey; type: in vivo, male cynomolgus monkeys; conditions: male, cynomolgus, plasma, 0.25 mg/kg, read-out: Monkey t1/2 (converted)
Procedure: The LC-MS methodology and conditions used to analyse Compound 1 in plasma samples from the intra-venous injection PK studies (Example 13) are described in Tables 5 to 7. A 0.25 mg/mL solution of Compound 1 in 10% DMSO, 10% Solutol HS15 and 80% Saline was prepared as follows: • 1) A stock solution of Compound 1 in DMSO was prepared. • 2) An equal volume of the Compound 1 stock solution and Solutol HS15 were combined and mixed. • 3) The above solution was diluted with normal saline to reach the target concentration. The final formulation was a clear solution. Male non-naïve Cyno Monkeys with were used for the monkey PK study. The animals had free access to food and water. The prepared solution was administered via intravenous injection to each animal group (n=3) to achieve a 0.25 mg/kg dose. At each time point, approximately 0.5 mL whole blood was collected into K2EDTA tubes. Blood samples were put on to ice and centrifuged at 2000 g for 5 min to obtain plasma sample within 15 minutes. Plasma samples were stored at approximately −70° C. until analyzed by LC-MS.

[6] = Example 13A: Compound 1 IV PK study in monkey; type: in vivo, male non-naïve cynomolgus monkeys; conditions: 0.2 mg/kg
Procedure: A 0.2 mg/mL solution of Compound 1 in 10% DMSO, 10% Solutol HS15 and 80% Saline was prepared as follows: • 1) A stock solution of Compound 1 in DMSO was prepared. • 2) An equal volume of the Compound 1 stock solution and Solutol HS15 were combined and mixed. • 3) The above solution was diluted with normal saline to reach the target concentration. The final formulation was a clear solution. Male non-naïve Cyno Monkeys with were used for the monkey PK study. The animals had free access to food and water. The Compound 1 solution described above was administered via intravenous injection (1 mL/kg) to each animal (n=3) to achieve a 0.2 mg/kg dose. At each time point, approximately 0.5 mL whole blood was collected into K2EDTA tubes. Blood samples were put on to ice and centrifuged at 2000 g for 5 min to obtain plasma sample within 15 minutes. Plasma samples were stored at approximately −70° C. until analyzed by LC-MS.

[7] = Example 7: Compound 1 aqueous suspension SC PK study in monkey; type: in vivo, male cynomolgus monkeys; conditions: aqueous suspension (Form A), 10 mg/kg
Procedure: as §1, with “NaCl+0.5% polysorbate 80” for “NaCl+0.5% poloxamer 188”, “of 3.0” for “of 5.0”, “Example 3.” for “Example 4.”, “male cyno monkeys” for “male non-naïve beagle dogs”, “Example 3” for “Example 4”

Row | fraction unbound (Plasma protein binding) | prolonged exposure out to (length of the study) [1] | prolonged exposure out to (length of the study) [3] | half-life [5] | Clearance [6] | half-life [6] | prolonged exposure out to (length of the study) [7] | Structure (SMILES) | EC50 (HSV-2) | rate of genital HSV shedding (genital HSV; at high doses, vs placebo) | number of days with lesions (genital HSV; men and women with genital herpes) | human biological terminal half-life [2] | adverse reactions at the injection sites [4]
1 | 0.02 to 0.03 | at least 144 hours | – | – | – | – | – | Cc1nc(N(C)C(=O)Cc2ccc(-c3ccccn3)cc2)sc1S(N)(=O)=O [pritelivir, N-methyl-N-(4-methyl-5-sulfamoyl-1,3-thiazol-2-yl)-2-[4-(pyridin-2-yl)phenyl]acetamide] | 29 nM | reduced the rate of genital HSV shedding | reduced the number of days with lesions | up to 80 hours | –
2 | – | – | at least 1392 hours | 49.6 h | 4 mL/h/kg | 72 h | at least 1392 hours | Cc1nc(N2CCCN(c3ccc(-c4cc(F)ccc4F)cc3)C2=O)sc1S(N)(=O)=O [Compound 1, 2-(3-(2′,5′-difluoro-[1,1′-biphenyl]-4-yl)-2-oxotetrahydropyrimidin-1(2H)-yl)-4-methylthiazole-5-sulfonamide] | – | – | – | – | no adverse reactions observed
